Measured values from ChEMBL document CHEMBL1201862, “PubChem BioAssay data set” (2004).
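Cells were grown in 96-well plates and exposed to each compound for 48 hours at five concentrations; endpoints were interpolated linearly between bracketing concentrations, or set to the highest concentration if not reached. The concentration for 50% growth inhibition is given as GI50.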 The source made the active and inactive calls. No stated cut-off is given here; in the data, active = GI50 up to about 1.1 µM and inactive = higher.

Key:
Assay in all cases: inhibition of tumour cell growth, NCI panel, 48 h
OVCAR-5 = tested on: OVCAR-5
TK-10 = tested on: TK-10
SR = tested on: SR
HCT-116 = tested on: HCT-116
SK-OV-3 = tested on: SK-OV-3
CCRF-CEM = tested on: CCRF-CEM
NCI-H460 = tested on: NCI-H460
SK-MEL-5 = tested on: SK-MEL-5
HOP-92 = tested on: HOP-92
ACHN = tested on: ACHN
SK-MEL-28 = tested on: SK-MEL-28
LOX IMVI = tested on: LOX IMVI
SK-MEL-2 = tested on: SK-MEL-2
OVCAR-8 = tested on: OVCAR-8
A498 = tested on: A498

Measured: GI50

O=C1C2Nc3ccccc3SC2C(=O)N1c1ccccc1C(F)(F)F (stereo unspecified)
inactive: OVCAR-5 > 100 µM | TK-10 42.1 µM | SR 32.7 µM | HCT-116 24.5 µM | SK-OV-3 23.7 µM | CCRF-CEM 15.2 µM | NCI-H460 32.7 µM | SK-MEL-5 12 µM | HOP-92 25 µM | ACHN 40.3 µM | SK-MEL-28 51.9 µM | LOX IMVI 40.2 µM | SK-MEL-2 27.2 µM | OVCAR-8 33.7 µM

Cn1cc2c(n1)c(N/N=C/c1ccccc1)nn1nnnc21
inactive: A498 > 100 µM | TK-10 > 100 µM | SR > 100 µM | HCT-116 > 100 µM | SK-OV-3 > 100 µM | CCRF-CEM > 100 µM | NCI-H460 > 100 µM | SK-MEL-5 > 100 µM | HOP-92 > 100 µM | ACHN > 100 µM | SK-MEL-28 > 100 µM | LOX IMVI > 100 µM | OVCAR-8 > 100 µM

CC(=O)OC1[C@H]2c3cc4c(cc3CN3CCC(C[C@@H]1OC(C)=O)C23)OCO4 (stereo partly specified)
inactive: TK-10 > 75 µM | SR > 75 µM | HCT-116 > 75 µM | SK-OV-3 > 75 µM | CCRF-CEM > 75 µM | NCI-H460 > 75 µM | ACHN > 75 µM | SK-MEL-28 > 75 µM | LOX IMVI > 75 µM | OVCAR-8 > 75 µM

CSC(C1c2ccccc2N(C)c2[nH]c(=O)n(C)c(=O)c21)S(=O)(=O)c1ccc(C)cc1 (stereo unspecified)
inactive: A498 > 100 µM | OVCAR-5 > 100 µM | TK-10 > 100 µM | HCT-116 68.2 µM | SK-OV-3 > 100 µM | CCRF-CEM 33.3 µM | SK-MEL-5 > 100 µM | HOP-92 > 100 µM | SK-MEL-28 > 100 µM | LOX IMVI > 100 µM | SK-MEL-2 > 100 µM | OVCAR-8 > 100 µM

O=C(CSc1nnc(Cc2ccccc2)o1)Nc1ccc([N+](=O)[O-])cc1
inactive: A498 > 100 µM | OVCAR-5 > 100 µM | TK-10 62.2 µM | HCT-116 > 100 µM | SK-OV-3 > 100 µM | CCRF-CEM > 100 µM | NCI-H460 > 100 µM | SK-MEL-5 > 100 µM | ACHN > 100 µM | SK-MEL-28 > 100 µM | LOX IMVI 61.7 µM | SK-MEL-2 > 100 µM | OVCAR-8 > 100 µM

CC1(C)OC(=O)C(C#N)=C1/C=C/c1coc2ccc(Cl)cc2c1=O
inactive: OVCAR-5 45.1 µM | SR 31.5 µM | HCT-116 33 µM | SK-OV-3 19.4 µM | CCRF-CEM 17.7 µM | NCI-H460 18.8 µM | SK-MEL-5 21.9 µM | SK-MEL-28 47.5 µM | LOX IMVI 18.9 µM | SK-MEL-2 22.1 µM | OVCAR-8 25.7 µM

Fc1cccc(F)c1C1SCc2nc3ccccc3n21 (stereo unspecified) [THIAZOLOBENZIMIDAZOLE]
inactive: A498 > 100 µM | OVCAR-5 85.9 µM | TK-10 61.4 µM | HCT-116 65.2 µM | SK-OV-3 > 100 µM | CCRF-CEM 52.4 µM | NCI-H460 47.3 µM | SK-MEL-5 31.5 µM | HOP-92 28.5 µM | ACHN > 100 µM | LOX IMVI 80.4 µM | SK-MEL-2 > 100 µM | OVCAR-8 77.8 µM

COc1cccc(NC(=O)CC(=O)N2NC(c3ccccc3)C(/N=N/c3cccc(C(=O)O)c3)C2=O)c1 (stereo unspecified)
inactive: A498 > 100 µM | OVCAR-5 > 100 µM | TK-10 > 100 µM | SR 55.2 µM | HCT-116 > 100 µM | SK-OV-3 > 100 µM | NCI-H460 > 100 µM | SK-MEL-5 > 100 µM | HOP-92 > 100 µM | ACHN > 100 µM | SK-MEL-28 > 100 µM | LOX IMVI > 100 µM | OVCAR-8 > 100 µM

N=C(N)N/N=C(/c1nc2ccc([N+](=O)[O-])cc2[nH]c1=O)C(O)c1ccc([N+](=O)[O-])cc1 (stereo unspecified)
inactive: OVCAR-5 > 100 µM | SR > 100 µM | HCT-116 > 100 µM | SK-OV-3 > 100 µM | CCRF-CEM > 100 µM | NCI-H460 51.3 µM | SK-MEL-5 37.5 µM | HOP-92 > 100 µM | ACHN 21.3 µM | SK-MEL-28 78.5 µM | LOX IMVI 38.5 µM | OVCAR-8 > 100 µM

O=C(Nc1ccc(Cl)c(C(F)(F)F)c1)C(=O)C(C(=O)/C=C/c1ccccc1)C1OC(=O)c2ccccc21 (stereo unspecified)
inactive: A498 > 100 µM | OVCAR-5 > 100 µM | TK-10 > 100 µM | SR > 100 µM | HCT-116 33.1 µM | SK-OV-3 > 100 µM | CCRF-CEM > 100 µM | NCI-H460 > 100 µM | HOP-92 > 100 µM | ACHN > 100 µM | LOX IMVI 90.2 µM | OVCAR-8 > 100 µM

COC(=O)/C=C1\CCC2[C@@H](C(=O)CC3[C@]2(C)CCC[C@@]3(C)C(=O)OC)C1C (stereo partly specified)
inactive: A498 34.7 µM | OVCAR-5 33 µM | TK-10 19.5 µM | HCT-116 18.5 µM | SK-OV-3 37.9 µM | CCRF-CEM 9.2 µM | NCI-H460 15.7 µM | SK-MEL-5 13.5 µM | HOP-92 21 µM | ACHN 22.5 µM | SK-MEL-28 16.3 µM | SK-MEL-2 18.2 µM | OVCAR-8 15.1 µM

O=[N+]([O-])c1ccc(Cc2nc3ccccc3s2)cc1
inactive: A498 > 100 µM | OVCAR-5 > 100 µM | TK-10 > 100 µM | SR 46 µM | HCT-116 38.9 µM | SK-OV-3 > 100 µM | CCRF-CEM 33.3 µM | NCI-H460 > 100 µM | SK-MEL-5 87.3 µM | HOP-92 > 100 µM | ACHN > 100 µM | SK-MEL-28 > 100 µM | SK-MEL-2 > 100 µM | OVCAR-8 91.4 µM

CS/C(=C(\S)c1ccccc1)c1ccccc1
inactive: A498 > 100 µM | OVCAR-5 > 100 µM | TK-10 > 100 µM | SR 50.6 µM | HCT-116 > 100 µM | SK-OV-3 > 100 µM | NCI-H460 > 100 µM | SK-MEL-5 > 100 µM | HOP-92 > 100 µM | ACHN > 100 µM | SK-MEL-28 > 100 µM | LOX IMVI > 100 µM | SK-MEL-2 > 100 µM | OVCAR-8 > 100 µM

O=C(/C=N/c1ccccc1C(=O)[O-])c1cccs1.O=C(/C=N/c1ccccc1C(=O)[O-])c1cccs1.[Zn+2]
inactive: A498 > 100 µM | OVCAR-5 24.7 µM | TK-10 > 100 µM | SR 46.3 µM | HCT-116 > 100 µM | SK-OV-3 20.5 µM | CCRF-CEM 23.7 µM | NCI-H460 71.8 µM | HOP-92 19.6 µM | ACHN > 100 µM | SK-MEL-28 39.5 µM | LOX IMVI 27.4 µM | SK-MEL-2 25.8 µM | OVCAR-8 36.1 µM

c1ccc(N2CCN(CCN3CCc4c([nH]c5ccccc45)C3c3cccnc3)CC2)cc1 (stereo unspecified)
inactive: A498 > 100 µM | OVCAR-5 > 100 µM | TK-10 > 100 µM | SR > 100 µM | HCT-116 46.8 µM | SK-OV-3 24 µM | CCRF-CEM > 100 µM | NCI-H460 > 100 µM | SK-MEL-5 > 100 µM | HOP-92 14.4 µM | ACHN > 100 µM | SK-MEL-28 > 100 µM | OVCAR-8 88.1 µM
